Results as given in publication PMC6328172, “5-HT2 receptor binding, functional activity and selectivity in N-benzyltryptamines” (PLoS ONE, 2019).
Counter-ions that a name gives are not always drawn.

Oc1cccc(CNCCc2c[nH]c3ccccc23)c1 (as salt: fumarate) [Compound 7, N-(3-Hydroxybenzyl)-[2-(1H-indol-3-yl)ethyl]amine]
melting point: 206 to 207 °C

Cc1ccc(O)c(CNCCc2c[nH]c3ccccc23)c1 (as salt: fumarate) [Compound 23, N-(2-Hydroxy-5-methylbenzyl)-[2-(1H-indol-3-yl)ethyl]amine]
melting point: 183 to 185 °C

COc1ccc(O)c(CNCCc2c[nH]c3ccc(OC)cc23)c1 (as salt: fumarate) [Compound 42, N-(2-Hydroxy-5-methoxybenzyl)-[2-(5-methoxy-1H-indol-3-yl)ethyl]amine]
melting point: 196 to 197 °C

COc1ccc2[nH]cc(CCNCc3cc(F)ccc3O)c2c1 (as salt: fumarate) [Compound 43, N-(5-Fluoro-2-hydroxybenzyl)-[2-(5-methoxy-1H-indol-3-yl)ethyl]amine]
melting point: 200 to 201 °C

Oc1ccccc1CNCCc1c[nH]c2ccccc12 (as salt: hydrochloride) [Compound 2, N-(2-Hydroxybenzyl)-[2-(1H-indol-3-yl)ethyl]amine]
melting point: 222 to 223 °C

CCOc1ccc(CNCCc2c[nH]c3ccccc23)cc1 (as salt: hydrochloride) [Compound 15, N-(4-Ethoxybenzyl)-[2-(1H-indol-3-yl)ethyl]amine]
melting point: 206 to 208 °C

COc1cccc(CNCCc2c[nH]c3ccccc23)c1OC (as salt: hydrochloride) [Compound 20, N-(2,3-Dimethoxybenzyl)-[2-(1H-indol-3-yl)ethyl]amine]
melting point: 210 to 212 °C

Oc1ccc(F)cc1CNCCc1c[nH]c2ccccc12 (as salt: hydrochloride) [Compound 24, N-(5-Fluoro-2-hydroxybenzyl)-[2-(1H-indol-3-yl)ethyl]amine]
melting point: 185 to 186 °C

COc1ccc(F)cc1CNCCc1c[nH]c2ccccc12 (as salt: hydrochloride) [Compound 25, N-(5-Fluoro-2-methoxybenzyl)-[2-(1H-indol-3-yl)ethyl]amine]
melting point: 179 to 180 °C

Oc1ccc(Br)cc1CNCCc1c[nH]c2ccccc12 (as salt: hydrochloride) [Compound 26, N-(5-Bromo-2-hydroxybenzyl)-[2-(1H-indol-3-yl)ethyl]amine]
melting point: 188 to 189 °C

COc1ccc(Br)cc1CNCCc1c[nH]c2ccccc12 (as salt: hydrochloride) [Compound 27, N-(5-Bromo-2-methoxybenzyl)-[2-(1H-indol-3-yl)ethyl]amine]
melting point: 192 to 193 °C

COc1ccc(Cl)cc1CNCCc1c[nH]c2ccccc12 (as salt: hydrochloride) [Compound 28, N-(5-Chloro-2-methoxybenzyl)-[2-(1H-indol-3-yl)ethyl]amine]
melting point: 184 to 185 °C

COc1ccc(OC)c(CNCCc2c[nH]c3ccccc23)c1 (as salt: hydrochloride) [Compound 29, N-(2,5-Dimethoxybenzyl)-[2-(1H-indol-3-yl)ethyl]amine]
melting point: 175 to 176 °C

O=[N+]([O-])c1ccc(O)c(CNCCc2c[nH]c3ccccc23)c1 (as salt: hydrochloride) [Compound 30, N-(5-Nitro-2-hydroxybenzyl)-[2-(1H-indol-3-yl)ethyl]amine]
melting point: 194 to 196 °C

Oc1cc(Br)ccc1CNCCc1c[nH]c2ccccc12 (as salt: hydrochloride) [Compound 31, N-(4-Bromo-2-hydroxybenzyl)-[2-(1H-indol-3-yl)ethyl]amine]
melting point: 192 to 194 °C
